Reference: article PMC8465942, “Cyano- and Ketone-Containing Selenoesters as Multi-Target Compounds against Resistant Cancers” (Cancers, 2021)
Entries after “also recorded” stand apart in the source; their conditions may differ. Marks after values point to notes of the source that are not given here.

Assays:
[1] = system: Colo 205 human colonic adenocarcinoma cell line; experiment: Cytotoxicity (MTT) on sensitive Colo 205 cells; assay type: cell-based; settings: for IC50: Homo sapiens, COLO 205, 24 h, MTT, read-out: Colo 205 (IC50 µM) Mean; for SI MRC-5/Colo 205: ratio IC50 non-tumour cells / IC50 cancer cells
Excerpt: (§1) Three cell lines have been used in this study: the doxorubicin-sensitive Colo 205 (CCL-222, ATCC, Manassas, VA, USA) human colonic adenocarcinoma cell line; the multidrug resistant Colo 320/MDR-LRP expressing P-gp (MDR1)-LRP (CCL-220.1, ATCC) human colonic adenocarcinoma cell line; and the MRC-5 human embryonal lung fibroblast cell line (CCL-171, ATCC). The colon adenocarcinoma cell lines were purchased from LGC Promochem (Teddington, UK), and the MRC-5 cell line was purchased from Sigma-Aldrich (Merck KGaA, Darmstadt, Germany). Their culture conditions are as follows: Colo 205 (CCL-222, ATCC) and Colo 320/MDR-LRP expressing P-gp (MDR1)-LRP (CCL-220.1, ATCC) human colon adenocarcinoma cell lines were cultured in RPMI 1640 medium, supplemented with 10% FBS, 2 mM L-glutamine, 1 mM Na-pyruvate, and […]. The cell lines were incubated at 37 °C, 5% CO2, and 95% air atmosphere. The semi-adherent human colon cancer cells were detached with a Trypsin-Versene (EDTA) solution for 5 min at 37 °C. MRC-5 human embryonal lung fibroblast cells were cultured in EMEM containing 4.5 g/L of glucose and supplemented with a non-essential amino acid mixture, a selection of vitamins, and 10% FBS. The cell lines were incubated at 37 °C, 5% CO2, and 95% air atmosphere.
(§2) The effects of increasing concentrations of the compounds on cell growth were tested in 96-well flat-bottomed microtiter plates. Moreover, 10^4 of human colonic adenocarcinoma cells in 100 μL of the medium (RPMI-1640) were added to each well, except for the medium control wells. The adherent human embryonic lung fibroblast cell line was seeded in the EMEM medium for 4 h before the assay. The two-fold serial dilutions of the compounds were made in a separate plate (0.19–100 μM), and then transferred to the plates containing the adherent corresponding cell line. Culture plates were incubated at 37 °C for 24 h. At the end of the incubation period, 20 μL of MTT (thiazolyl blue tetrazolium bromide) solution (from a 5 mg/mL stock solution) were added to each well. After incubation at 37 °C for 4 h, 100 μL of sodium dodecyl sulfate (SDS) solution (10% SDS in 0.01 M HCl) was added to each well, and the plates were further incubated at 37 °C overnight. Cell growth was determined by measuring the optical density (OD) at 540 nm (ref. 630 nm) with a Multiscan EX ELISA reader (Thermo Labsystems, Cheshire, WA, USA). Inhibition of cell growth was expressed as IC50 values, defined as the inhibitory dose that reduces the growth of the cells exposed to the tested compounds by 50%. IC50 values and the SD of triplicate experiments were calculated by using GraphPad Prism software version 5.00 for Windows, with a non-linear regression curve fit (GraphPad Software, San Diego, CA, USA; www.graphpad.com, accessed on 12 July 2021). Doxorubicin (from a 2 mg/mL stock solution, Teva Pharmaceuticals) was used as a positive control.
(§3) The selectivity indexes (SI) were calculated as the ratio of the IC50 value in the non-tumour cells and the IC50 in the cancer cell lines. The compound’s activity towards cancer cells is considered as strongly selective if the selectivity index (SI) value is higher than 6, moderately selective if 3 < SI < 6, slightly selective if 1 < SI < 3, and non-selective if SI is lower than 1 [16].

[2] = system: Colo 320/MDR-LRP human colonic adenocarcinoma cell line; experiment: Cytotoxicity (MTT) on resistant Colo 320 cells; assay type: cell-based; settings: for IC50: Homo sapiens, COLO 320, 24 h, MTT, read-out: Colo 320 (IC50 µM) Mean; for SI MRC-5/Colo 320: ratio IC50 non-tumour cells / IC50 cancer cells
Excerpt: as §1, §2, §3

[3] = Cytotoxicity (MTT) on normal MRC-5 fibroblasts; assay type: cell-based; settings: human
Excerpt: as §1, §2

[4] = system: HepG2 (hepatocellular carcinoma); experiment: Cytotoxicity on HepG2 cells; assay type: cell-based; settings: Homo sapiens
Protocol: (§4) The activity of selenoesters was tested on several cancer cell lines, including HepG2 (hepatocellular carcinoma, CCL-23TM, ATCC); HeLa (cervical adenocarcinoma, CCL-2TM, ATCC); B16 (skin melanoma, CCL-6322TM, ATCC); and a non-cancerous cell line, HDF (human dermal fibroblasts, Sigma-Aldrich). HepG2, HeLa, B16, and HDF cell lines were cultivated in EMEM medium supplemented with 10% FBS, 2 mM L-glutamine, and 1% penicillin-streptomycin mixture. The HaCaT cell line was cultivated in DMEM medium supplemented with 10% FBS and 1% penicillin-streptomycin mixture. All of the cells were cultivated in a CO2 incubator (5% CO2, 37 °C). Twice per week, the cell lines were passaged according to a standardized protocol with a trypsin-EDTA solution.
as §3

[5] = system: HeLa (cervical adenocarcinoma); experiment: Cytotoxicity on HeLa cells; assay type: cell-based; settings: Homo sapiens
Protocol: as §4, §3

B16 (skin melanoma) = experiment: Cytotoxicity on B16 cells; assay type: cell-based, murine; settings: Mus musculus
Protocol: as §4, §3

[6] = system: resistant Colo 320 colon adenocarcinoma cells expressing the ABCB1 transporter; experiment: Checkerboard combination assay with doxorubicin; assay type: cell-based, human
Protocol: A checkerboard microplate method was applied to study the effect of drug interactions between the selenocompounds and the chemotherapeutic drug doxorubicin on resistant Colo 320 colon adenocarcinoma cells expressing the ABCB1 transporter. Results were expressed in terms of the combination index (CI) values at 50% growth inhibition (ED50), which were determined by using CompuSyn software to plot 4 or 5 data points for each ratio.
To perform the experiment, the dilutions of doxorubicin were made in a horizontal direction in 100 µL, and the dilutions of the Se-compounds were made vertically in the microtiter plate in a volume of 50 µL. The cells were re-suspended in the culture medium and distributed into each well in 50 µL portions containing 6000 cells. The plates were incubated for 72 h at 37 °C in a CO2 incubator. The cell growth rate was determined after MTT staining. At the end of the incubation period, 20 μL of MTT solution was added to each well. After incubation at 37 °C for 4 h, 100 μL of SDS was added to each well and the plates were further incubated at 37 °C overnight. The optical density (OD) was measured at 540/630 nm with the Multiscan EX ELISA reader.

HaCaT cell line = experiment: Toxicity on HaCaT cells (IC10 used as dose); assay type: cell-based; settings: Homo sapiens, concentration inhibiting 10% of the population, highest non-toxic concentration, read-out: Dose IC10
Protocol: as §4, with “solution. […]” for “solution.”
Wound healing activity of selenoesters was evaluated as the ability of the cells to migrate and close the gap created on the monolayer of human keratinocytes (HaCaT cell line). The tested substances were applied in the highest possible non-toxic concentration (IC10, concentration inhibiting 10% of the population). In general, ketone-selenoesters were more toxic (except K4 and K1) than cyano-selenoesters (except N4); therefore, they were applied at lower doses (0.17–0.30 µM) when compared to cyanoselenoesters (0.36–0.64 µM). Compounds K1, K4, and N4 were applied at a concentration of 0.30, 0.46, and 0.20 µM, respectively. As could be seen in Table 8, all ketone-selenoesters stimulated wound healing more effectively in comparison to both untreated control (p < 0.0000005) and allantoin (p < 0.00005). […] Only samples N1, N2, N4, and N7 closed effectively the damaged wound in 24 h, with the gap closure around 70%.

[7] = system: HepG2 (hepatocellular carcinoma); experiment: Cytotoxicity on HepG2 cells; assay type: cell-based, human; settings: ratio IC50 non-tumour cells / IC50 cancer cells
[8] = system: human keratinocyte (HaCaT); experiment: Wound healing scratch assay; assay type: cell-based; settings: 50 µg/mL positive control
Protocol: Wound healing activity was realized using human keratinocyte (HaCaT, Thermo Fisher Scientific, Waltham, MA, USA). Wound healing was measured in vitro by scratch assay, as the migration rate of the cells to close the gap was created, as described by Ling et al., with slight modifications. Briefly, HaCaT cells at the concentration of 5×10^5 cells were seeded into 12-well plates and incubated at 37 °C and 5% CO2 until the cells formed a uniform layer. After layer formation, the cells were washed with PBS and then scratched with a sterile micropipette tip. […] The images of the scratch area were captured using an inverted microscope in 4× magnification at different time intervals (0 h, 24 h, 48 h) and evaluated using ImageJ software (National Institutes of Health, Bethesda, MD, USA). All of the experiments were performed in four replicates, and a minimum of five measurements were considered from each image captured. Dean–Dixon’s test was used to remove the outliners in the values measured, and further statistical significances between the groups were established by t-test (Excel, Microsoft Office, Redmond, WA, USA). The wound closure was calculated as the ratio of the gap size at the beginning minus the gap size at the evaluated time.

| Compound | IC50 [1] [µM] | SI MRC-5/Colo 205 [1] | IC50 [2] [µM] | SI MRC-5/Colo 320 [2] | IC50 at 24 h [3] [nM] | IC50 [4] [µM] | IC50 [5] [µM] | IC50 (B16 (skin melanoma)) [µM] | IC10 (HaCaT cell line) [nM] | melting point [°C] | SI MRC-5/HepG2 [7] | also measured |
| --- | --- | --- | --- | --- | --- | --- | --- | --- | --- | --- | --- | --- |
| N#CC[Se]C(=O)c1cccs1 [N1, Se-(Cyanomethyl) Thiophene-2-carboselenoate] | 2.37 | >6 * | 7.64 | >6 * | > 100000 | 11.3 | 2 | 1.9 | 400 | 50 to 52 | >6 * | Interaction with doxorubicin ([6]; in at least one of the ratios tested): synergistic manner; also recorded: synergistic effect; Type of Interaction ([6]; ratio 1.7:1, starting conc. 15 µM): Antagonism; Type of Interaction ([6]; ratio 3.4:1, starting conc. 15 µM): Synergism; Type of Interaction ([6]; ratio 6.8:1, starting conc. 15 µM): Synergism; Type of Interaction ([6]; ratio 13.6:1, starting conc. 15 µM): Additive effect; Type of Interaction ([6]; ratio 27.2:1, starting conc. 15 µM): Synergism |
| N#CC[Se]C(=O)c1ccc(F)c(Cl)c1 [N6, Se-(Cyanomethyl) 3-Chloro-4-fluorobenzoselenoate] | 2.24 | >6 * | 5.19 | >6 * | > 100000 | 9.6 | 1.3 | 1.7 | 600 | 73 to 75 | >6 * | Type of Interaction ([6]; ratio 1.2:1, starting conc. 10 µM): Antagonism; Type of Interaction ([6]; ratio 4.8:1, starting conc. 10 µM): Antagonism; Type of Interaction ([6]; ratio 9.6:1, starting conc. 10 µM): Antagonism; Type of Interaction ([6]; ratio 19.2:1, starting conc. 10 µM): Antagonism; Type of Interaction ([6]; ratio 38.4:1, starting conc. 10 µM): Antagonism |
| NC(=O)NC1NC(=O)NC1=O (centres unmarked) [PC, Allantoin] |  |  |  |  |  |  |  |  |  |  |  | Closure (%) 24 h ([8]; 24 h): 70.37%; Closure (%) 48 h ([8]; 48 h): 84.63% |
